What follows are molecules tested against T1, TNIK (Homo sapiens, UniProt Q9UKE5) (assay: ADP-Glo Kinase Assay, inhibition activity on TNIK). Conditions: TNIK (μM).
T1 construct: purchased Promega V4158
Type: biochemical
Procedure: The inhibition activities on TNIK, IKKε and TBK1 were measured by a luminometer, TNIK/IKKε/TBK1 Kinase Enzyme System (Promega, Ca# V4158; Invitrogen, PR8031B, Promega, Ca# V3991) and ADP-Glo Kinase Assay using ADP-Glo™ Kinase Analysis Kit (Promega, Ca# V9101) and a kinase reaction buffer [40 mM Tris(pH 7.5), 20 mM MgCl2, 0.1 mg/mL BSA] in accordance with the manufacturer's protocol.

T1 sequence (Q9UKE5 1-367 limits assumed): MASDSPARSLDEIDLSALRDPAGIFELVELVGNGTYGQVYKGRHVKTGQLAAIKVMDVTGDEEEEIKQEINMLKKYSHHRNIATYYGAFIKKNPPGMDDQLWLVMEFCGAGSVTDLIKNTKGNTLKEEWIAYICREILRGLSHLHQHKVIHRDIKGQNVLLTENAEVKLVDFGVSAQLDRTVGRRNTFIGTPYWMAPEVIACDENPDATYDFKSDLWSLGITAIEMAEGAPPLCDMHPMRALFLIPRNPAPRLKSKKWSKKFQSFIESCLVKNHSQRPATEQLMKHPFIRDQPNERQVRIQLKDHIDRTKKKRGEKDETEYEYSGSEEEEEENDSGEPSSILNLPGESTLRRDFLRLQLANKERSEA

O=C1NCc2c(-c3ccccc3)ccc(NCCCl)c21 [Example 253, 7-((2-Chloroethyl)amino)-4-phenylisoindolin-1-one] was tested, and the IC50 was 2.6 µM.

Same assay, conditions: read-out: TNIK

O=C(Nc1ccc(-c2ccccc2)c2c1C(=O)NC2)c1cccs1 [Example 203, N-(3-oxo-7-phenylisoindolin-4-yl)thiophene-2-carboxamide] and O=C(Nc1ccc(-c2ccccc2)c2c1C(=O)NC2)c1ccco1 [Example 212, N-(3-oxo-7-phenylisoindolin-4-yl)furan-2-carboxamide] are within 1.5-fold of each other in IC50: 0.35 µM for the first, 0.3 µM for the second.

First: COc1ccc(C(=O)Nc2ccc(-c3ccc(C(C)=O)cc3)c3c2C(=O)NC3)cc1 [Example 204, N-(7-(4-acetylphenyl)-3-oxoisoindolin-4-yl)-4-methoxy benzamide]
Second: COc1ccc(-c2ccc(NC(=O)Nc3ccccc3)c3c2CNC3=O)cc1 [Example 244, 1-(7-(4-Methoxyphenyl)-3-oxoisoindolin-4-yl)-3-phenylurea]
The IC50 of the first is higher: over 20 µM for the first, 4.02 µM for the second.

Going from O=C(Nc1ccc(-c2ccc(F)cc2)c2c1C(=O)NC2)c1ccccc1 [Example 205, N-(7-(4-fluorophenyl)-3-oxoisoindolin-4-yl)benzamide] to Cc1ccc(-c2ccc(NC(=O)c3ccccc3)c3c2CNC3=O)cc1 [Example 209, N-(3-oxo-7-(p-tolyl)isoindolin-4-yl)benzamide], the IC50 falls from over 20 µM to 2.8 µM.

N#Cc1ccc(-c2ccc(NC(=O)c3ccccc3)c3c2CNC3=O)cc1 [Example 207, N-(7-(4-cyanophenyl)-3-oxoisoindolin-4-yl)benzamide] and N#Cc1ccc(C(=O)Nc2ccc(-c3ccccc3)c3c2C(=O)NC3)cc1 [Example 208, 4-Cyano-N-(3-oxo-7-phenylisoindolin-4-yl)benzamide] cannot be ordered by IC50: over 20 µM for the first, over 20 µM for the second.

First: O=C(Nc1ccc(-c2ccc(C(F)(F)F)cc2)c2c1C(=O)NC2)c1ccccc1 [Example 210, N-(3-oxo-7-(4-(trifluoromethyl)phenyl)isoindolin-4-yl) benzamide]
Second: O=C(Nc1ccc(-c2ccccc2)c2c1C(=O)NC2)c1ccncc1 [Example 211, N-(3-oxo-7-phenylisoindolin-4-yl)isonicotinamide]
The IC50 of the first is higher: over 20 µM for the first, 0.7 µM for the second. The second is the more potent here.

First: O=C(Nc1ccc(-c2ccccc2)c2c1C(=O)NC2)c1cccnc1 [Example 213, N-(3-oxo-7-phenylisoindolin-4-yl)nicotinamide]
Second: O=C(Nc1ccc(-c2ccccc2)c2c1C(=O)NC2)Oc1ccccc1 [Example 248, Phenyl (3-oxo-7-phenylisoindolin-4-yl)carbamate]
The IC50 of the first is lower: 0.6 µM for the first, over 20 µM for the second.

Going from O=C(Nc1ccc(-c2ccc3ncccc3c2)c2c1C(=O)NC2)c1ccc(F)cc1 [Example 214, 4-Fluoro-N-(3-oxo-7-(quinolin-6-yl)isoindolin-4-yl)benzamide] to O=C(Nc1ccc(-c2cccc3ncccc23)c2c1C(=O)NC2)c1ccc(F)cc1 [Example 215, 4-Fluoro-N-(3-oxo-7-(quinolin-5-yl)isoindolin-4-yl)benzamide], the IC50 falls from over 20 µM to 0.24 µM.

Going from O=C(Nc1ccc(-c2ccnc3ccccc23)c2c1C(=O)NC2)c1ccc(F)cc1 [Example 216, 4-Fluoro-N-(3-oxo-7-(quinolin-4-yl)isoindolin-4-yl)benzamide] to O=C(Nc1ccc(-c2cccc3cc[nH]c23)c2c1C(=O)NC2)c1ccc(F)cc1 [Example 217, N-(7-(1H-indol-7-yl)-3-oxoisoindolin-4-yl)-4-fluorobenzamide], the IC50 rises from 0.16 µM to 2.95 µM (18-fold).

Compared with O=C(Nc1ccc(-c2cccc3[nH]cnc23)c2c1C(=O)NC2)c1ccc(F)cc1 [Example 218, N-(7-(1H-benzo[d]imidazol-4-yl)-3-oxoisoindolin-4-yl)-4-fluorobenzamide], O=C(Nc1ccc(Cc2ccccc2)c2c1C(=O)NC2)c1ccc(F)cc1 [Example 219, N-(7-benzyl-3-oxoisoindolin-4-yl)-4-fluorobenzamide] is 24-fold higher in IC50: 0.59 µM for the first, 13.9 µM for the second. The first is the more potent here.

Compared with COc1cccc(-c2ccc(NC(=O)c3ccco3)c3c2CN(C(=O)c2ccco2)C3=O)c1OC [Example 224, N-(7-(2,3-dimethoxyphenyl)-2-(furan-2-carbonyl)-3-oxoisoindolin-4-yl)furan-2-carboxamide], COc1cccc(-c2ccc(NC(=O)c3cccs3)c3c2CN(C(=O)c2cccs2)C3=O)c1OC [Example 225, N-(7-(2,3-dimethoxyphenyl)-3-oxo-2-(thiophene-2-carbonyl)isoindolin-4-yl)thiophene-2-carboxamide] is higher in IC50: 1 µM for the first, over 20 µM for the second.

First: O=C(Nc1ccc(F)cc1)Nc1ccc(-c2ccccc2)c2c1C(=O)NC2 [Example 226, 1-(4-Fluorophenyl)-3-(3-oxo-7-phenylisoindolin-4-yl)urea]
Second: O=C(Nc1ccccc1)Nc1ccc(-c2ccc(F)cc2)c2c1C(=O)NC2 [Example 245, 1-(7-(4-Fluorophenyl)-3-oxoisoindolin-4-yl)-3-phenylurea]
The IC50 of the first is 2.6-fold lower: 2.5 µM for the first, 6.5 µM for the second.

Going from O=C(Nc1ccccc1)Nc1ccc(-c2ccccc2)c2c1C(=O)NC2 [Example 227, 1-(3-Oxo-7-phenylisoindolin-4-yl)-3-phenylurea] to O=C1NCc2c(-c3ccccc3)ccc(NC(=S)Nc3ccccc3)c21 [Example 247, 1-(3-Oxo-7-phenylisoindolin-4-yl)-3-phenylthiourea], the IC50 rises from 1.2 µM to over 20 µM. The first is the more potent here.

Going from N#Cc1ccc(NC(=O)Nc2ccc(-c3ccccc3)c3c2C(=O)NC3)cc1 [Example 228, 1-(4-Cyanophenyl)-3-(3-oxo-7-phenylisoindolin-4-yl)urea] to Cc1ccc(NC(=O)Nc2ccc(-c3ccccc3)c3c2C(=O)NC3)cc1 [Example 232, 1-(3-Oxo-7-phenylisoindolin-4-yl)-3-(p-tolyl)urea], the IC50 falls from over 20 µM to 2.1 µM. The second is the more potent here.

First: CCCCNC(=O)Nc1ccc(-c2ccccc2)c2c1C(=O)NC2 [Example 229, 1-Butyl-3-(3-oxo-7-phenylisoindolin-4-yl)urea]
Second: CCNC(=O)Nc1ccc(-c2ccccc2)c2c1C(=O)NC2 [Example 236, 1-Ethyl-3-(3-oxo-7-phenylisoindolin-4-yl)urea]
The IC50 of the first is 1.9-fold higher: 1.1 µM for the first, 0.58 µM for the second. The second is the more potent here.

Compared with COc1ccc(NC(=O)Nc2ccc(-c3ccccc3)c3c2C(=O)NC3)cc1 [Example 230, 1-(4-Methoxyphenyl)-3-(3-oxo-7-phenylisoindolin-4-yl)urea], O=C(Nc1ccc(Cl)cc1)Nc1ccc(-c2ccccc2)c2c1C(=O)NC2 [Example 243, 1-(4-Chlorophenyl)-3-(3-oxo-7-phenylisoindolin-4-yl)urea] is 4.3-fold higher in IC50: 0.9 µM for the first, 3.9 µM for the second.

O=C(Nc1ccc(-c2ccccc2)c2c1C(=O)NC2)NC1CCCCC1 [Example 231, 1-Cyclohexyl-3-(3-oxo-7-phenylisoindolin-4-yl)urea] and O=C(Nc1ccc(-c2ccccc2)c2c1C(=O)NC2)NC1CCCC1 [Example 239, 1-Cyclopentyl-3-(3-oxo-7-phenylisoindolin-4-yl)urea] cannot be ordered by IC50: over 20 µM for the first, over 20 µM for the second.

First: COc1ccccc1NC(=O)Nc1ccc(-c2ccccc2)c2c1C(=O)NC2 [Example 233, 1-(2-Methoxyphenyl)-3-(3-oxo-7-phenylisoindolin-4-yl)urea]
Second: Cc1ccccc1NC(=O)Nc1ccc(-c2ccccc2)c2c1C(=O)NC2 [Example 238, 1-(3-Oxo-7-phenylisoindolin-4-yl)-3-(o-tolyl)urea]
The IC50 of the first is lower: 16.7 µM for the first, over 20 µM for the second.

First: CC(C)NC(=O)Nc1ccc(-c2ccccc2)c2c1C(=O)NC2 [Example 234, 1-Isopropyl-3-(3-oxo-7-phenylisoindolin-4-yl)urea]
Second: CS(=O)(=O)Nc1ccc(-c2ccccc2)c2c1C(=O)NC2 [Example 250, N-(3-oxo-7-phenylisoindolin-4-yl)methanesulfonamide]
The IC50 of the first is 11-fold lower: 1.9 µM for the first, 21 µM for the second.

O=C(Nc1ccc([N+](=O)[O-])cc1)Nc1ccc(-c2ccccc2)c2c1C(=O)NC2 [Example 235, 1-(4-Nitrophenyl)-3-(3-oxo-7-phenylisoindolin-4-yl)urea] and CC(=O)c1ccc(NC(=O)Nc2ccc(-c3ccccc3)c3c2C(=O)NC3)cc1 [Example 237, 1-(4-Acetylphenyl)-3-(3-oxo-7-phenylisoindolin-4-yl)urea] are within 1.5-fold of each other in IC50: 4.6 µM for the first, 4.9 µM for the second.

O=C(Nc1cccc(F)c1)Nc1ccc(-c2ccccc2)c2c1C(=O)NC2 [Example 240, 1-(3-Fluorophenyl)-3-(3-oxo-7-phenylisoindolin-4-yl)urea] and CSc1cccc(NC(=O)Nc2ccc(-c3ccccc3)c3c2C(=O)NC3)c1 [Example 241, 1-(3-(Methylthio)phenyl)-3-(3-oxo-7-phenylisoindolin-4-yl) urea] are within 1.5-fold of each other in IC50: 2.4 µM for the first, 2.7 µM for the second.

Going from O=C(Nc1ccccc1F)Nc1ccc(-c2ccccc2)c2c1C(=O)NC2 [Example 242, 1-(2-Fluorophenyl)-3-(3-oxo-7-phenylisoindolin-4-yl)urea] to O=C1NCc2c(-c3ccccc3)ccc(NS(=O)(=O)c3ccccc3)c21 [Example 249, N-(3-oxo-7-phenylisoindolin-4-yl)benzenesulfonamide], the IC50 rises from 2.3 µM to over 20 µM.

Compared with Nc1ccc(-c2ccccc2)c2c1C(=O)N(C(=O)NC1CCCCC1)C2 [Example 246, 7-Amino-N-cyclohexyl-1-oxo-4-phenylisoindolin-2-carboxamide], O=C1NCc2c(-c3ccccc3)ccc(NCCO)c21 [Example 256, 7-((2-Hydroxyethyl)amino)-4-phenylisoindolin-1-one] is lower in IC50: over 20 µM for the first, 4.9 µM for the second. The second is the more potent here.

O=C1NCc2c(-c3ccccc3)ccc(NS(=O)(=O)c3ccc(F)cc3)c21 [Example 251, 4-Fluoro-N-(3-oxo-7-phenylisoindolin-4-yl)benzene sulfonamide] and COc1ccc(S(=O)(=O)Nc2ccc(-c3ccccc3)c3c2C(=O)NC3)cc1 [Example 252, 4-Methoxy-N-(3-oxo-7-phenylisoindolin-4-yl)benzene sulfonamide] cannot be ordered by IC50: over 20 µM for the first, over 20 µM for the second.

First: N#CCCNc1ccc(-c2ccccc2)c2c1C(=O)NC2 [Example 254, 3-((3-Oxo-7-phenylisoindolin-4-yl)amino)propanenitrile]
Second: CN(C)CCNc1ccc(-c2ccccc2)c2c1C(=O)NC2 [Example 255, 7-((2-(Dimethylamino)ethyl)amino)-4-phenylisoindolin-1-one]
The IC50 of the first is lower: 5.6 µM for the first, over 20 µM for the second.

Source: patent US9856216B2, “Compounds as TNIK, IKKε and TBK1 inhibitors and pharmaceutical composition comprising same” (GREEN CROSS CORPORATION, priority 2015, dated 2018)
